Where two headings read alike, the source gives them in different places.
Test system: xxLAI strain of HIV-1
Experiment: microbe, parasite or virus in culture
Type: cell-based
Conditions: for Fold difference in EC50, 0.1 μM MPA: control vs with 0.1 μM MPA; for Fold difference in EC50, 0.25 μM MPA: control vs with 0.25 μM MPA (fold decrease); for Fold difference in EC50, 1 μM RBV: control vs with 1 μM RBV; for Fold difference in EC50, 5 μM RBV: control vs with 5 μM RBV; for Fold difference in EC50, 10 μM RBV: control vs with 10 μM RBV; for Fold difference in EC50, 20 μM RBV: control vs with 20 μM RBV (fold decrease)
Description: Triplicate samples of compound were tested. MT2 cells were infected with xxLAI at a multiplicity of infection (MOI) of 0.03 for 3 hours at 37° C. in 5% CO2. The infected cells were plated at 3.0×10^4/well into a 96 well plated containing drug dilutions and incubated for 5 days at 37° C. in CO2. […] This method has been modified into a susceptibility assay and has been used in a variety of in vitro antiviral tests and is readily adaptable to any system with a lytic virus (Weislow, O. S., et. al. 1989). Using the absorption values of the cell controls as 100% protection and no drug, virus infected cells as 0% protection, a dose response curve is generated by plotting % protection on the Y axis and drug concentration on the X axis. From this curve EC50 values were determined.
Assays were performed in the MT2 cell line as described above in the XXT sensitivity assay section.
MPA was tested for activity against the xxLAI strain of HIV-1 in the laboratory adapted cell line MT2. Dilutions of MPA were made in cell culture media in a 96 well plate; the highest concentration tested was 1 μM. Triplicate samples of compound were tested. MT2 cells were infected with xxLAI at a multiplicity of infection (MOI) of 0.03 for 3 hours at 37° C. in 5% CO2. The infected cells were plated at 3.0×10^4/well into a 96 well plated containing drug dilutions and incubated for 5 days at 37° C. in CO2. The antiviral activity of MPA was determined using the XTT assay described above. This method has been modified into a susceptibility assay and has been used in a variety of in vitro antiviral tests and is readily adaptable to any system with a lytic virus (Weislow, O. S., et. al. 1989). Using the absorption values of the cell controls as 100% protection and no drug, virus infected cells as 0% protection, a dose response curve is generated by plotting % protection on the Y axis and drug concentration on the X axis. From this curve EC50 values were determined.
The concentrations of MPA used were 1, 0.5, 0.25, 0.1, and 0.01 μM. Assays were performed in the MT2 cell line as described in section 3.1.

[1] = Human immunodeficiency virus 1, MT2, read-out: Mean EC50, Control, MT2 cells, no MPA
[2] = Human immunodeficiency virus 1, MT2, read-out: Mean EC50, Control, MT2 cells, no RBV
[3] = read-out: Mean EC50, 0.01 μM MPA, MT2 cells, with 0.01 μM MPA
[4] = read-out: Mean EC50, 0.1 μM MPA, MT2 cells, with 0.1 μM MPA
[5] = read-out: Mean EC50, 0.25 μM MPA, MT2 cells, with 0.25 μM MPA
[6] = read-out: Mean EC50, 1 μM RBV, MT2 cells, with 1 μM RBV
[7] = read-out: Mean EC50, 5 μM RBV, MT2 cells, with 5 μM RBV
[8] = read-out: Mean EC50, 10 μM RBV, MT2 cells, with 10 μM RBV
[9] = read-out: Mean EC50, 20 μM RBV, MT2 cells, with 20 μM RBV

Row | Compound | EC50 [1] | EC50 [2] | Fold difference in EC50, 0.1 μM MPA (MT2 cells) | Fold difference in EC50, 0.25 μM MPA (MT2 cells) | Fold difference in EC50, 1 μM RBV (MT2 cells) | Fold difference in EC50, 5 μM RBV (MT2 cells) | Fold difference in EC50, 10 μM RBV (MT2 cells) | Fold difference in EC50, 20 μM RBV (MT2 cells) | EC50 [3] | EC50 [4] | EC50 [5] | EC50 [6] | EC50 [7] | EC50 [8] | EC50 [9]
1 | Nc1nc2c(ncn2C2COC(CO)O2)c(=O)[nH]1 (single isomer, unassigned; (-)) [DXG] | 2100 nM | 2650 nM | 3.5 fold | 10.5 fold | 1.29 fold | 4.57 fold | 5.3 fold | 12 fold | 2500 nM | 600 nM | 200 nM | 2050 nM | 580 nM | 500 nM | 220 nM
2 | Nc1nc(N)c2ncn(C3COC(CO)O3)c2n1 (single isomer, unassigned; (-)) [DAPD] | 20000 nM | 18500 nM | 4.1 fold | 16.7 fold | 2.25 fold | 6.4 fold | 11.56 fold | 14.2 fold | 22000 nM | 4900 nM | 1200 nM | 8200 nM | 2900 nM | 1600 nM | 1300 nM
